Here are results for one compound from PMC3996151, “Safety and pharmacological characterization of the molecular tweezer CLR01 – a broad-spectrum inhibitor of amyloid proteins’ toxicity” (BMC Pharmacology & Toxicology, 2014).

Where “and” joins values, the source holds several entries; their conditions need not be identical. Equal values may be shown once.

Data set [1] can be described thus: Blood-brain barrier permeability with 3H-CLR01 IV (scintillation counting of blood and brain). It counts as in vivo, mouse. Particulars: for Blood radioactivity levels, % of the injected levels: 0.5 h following IV injection; for Brain radioactivity after double injection compared to one injection: two 11.86-μg/g injections. The protocol: The following groups of mice were used for CLR01 BBB penetration studies: 3×Tg and the corresponding WT mice at 2-m, 12-m, and 22 - 24-m (hereafter referred to as 22-m) of age. The groups were: 2-m WT, 2-m Tg, 12-m WT, 12-m Tg, 22-m WT, 22-m Tg. Mice were administered ^3H-CLR01 intravenously. Two μCi per gram of mouse body weight, which are equal to 11.86 μg/g of CLR01 in which ^3H-CLR01 made up 10% of the total CLR01, were injected into the jugular vein. Blood and brain were collected at 0.5, 1, 3, 8, 24, or 72 h (not all time points were collected for all groups, see the Results section). For times ≤ 3 h, mice were anesthetized by IP injection of ketamine and xylazine. The mice remained anesthetized following the injection until the specified time point, at which point they were given a lethal dose of pentobarbital. Then, blood was collected via a cardiac puncture, and the brain harvested with or without a perfusion step Pharmacokinetics of CLR01 in vivo. For time points 8–72 h, mice were not anesthetized and ^3H-CLR01 was injected into the tail vein. This change was due to the difficulty of keeping mice anesthetized for longer than 3 h. No differences were observed between mice given anesthesia and jugular vein injections and mice receiving tail vein injections.
Euthanasia procedures were the same as described above. For all mice, one hemisphere of the brain and 100–350 μl of blood were separately digested following instructions from Perkin-Elmer (document: Scintillation Cocktails and Consumables) with 1 ml Solvable (Perkin-Elmer, Waltham, MA), added to Ultima Gold Liquid Scintillation Cocktail (Perkin-Elmer) and read in a Triathler Liquid Scintillation Counter model 425–034, (Hidex, Turku, Finland). Brain permeability percentage was calculated as counts per minute (CPM) per g of brain relative to CPM per ml of blood. The data are an average of values from three mice per genotype/age/time combination.
For CLR01 transport-saturation studies using 5× the CLR01 dose, ^3H-CLR01 was kept at 10% of the total CLR01 mixture and a total of 59.3 μg of CLR01 (10 μCi) per g of mouse body weight was injected IV (22-m WT 5× dose). For CLR01 brain-accumulation studies, two 11.86-μg/g injections were administered at equal time intervals (22-m WT 2× inj). In these experiments, mice were injected at time = 0 and at t = ½ of euthanasia time. For example, in the original, single-injection experiments, a mouse would receive an injection at t = 0 and then be euthanized at t = 1 h. In this experiment, a mouse received one injection at t = 0, a second injection at t = 0.5 h, and then was euthanized at t = 1 h.
In experiments using ^3H-CLR01, urine was collected when possible over the period between injection and euthanasia. […] We could not normalize the radioactivity because the amount of urine in the bladder prior to injection and the volume produced during the experiment could not be calculated.
To correct for the radioactivity associated with blood-borne ^3H-CLR01 in the brain vasculature, we performed both perfusion and subtraction analyses. In perfusion experiments, WT and 3×Tg mice at each of the three ages analyzed (n = 3 per group) were perfused with phosphate buffered saline following euthanasia. Perfusion lasted for either 5 min or until the liver changed color from a red to yellow, whichever was longer. In other experiments, mice were not perfused, but radioactivity associated with 10 μl of blood per g of brain [29, 30] was calculated based on brain weight and blood radioactivity levels and subtracted from brain radioactivity levels. At 1 h post injection, perfusion-corrected brain values were statistically similar to subtraction-corrected brain values (Figure 5). […]

Data set [2] relates to nerve growth factor-differentiated rat pheochromocytoma cells. Further details: method as in PMID 21916458, PMID 22860214. The note with it: cited from earlier work.

With `O=P(O)(O)Oc1c2c(c(OP(=O)(O)O)c3c1C1CC3c3cc4c(cc31)C1CC4c3ccccc31)C1CC2c2cc3c(cc21)C1CC3c2ccccc21` [CLR01], in data set [1] (0.5 - 72 h post-injection, IV), the “Brain radioactivity levels over time” value is given as “did not change significantly up to 72 h post-injection”. In addition, the “Brain penetration, % of blood” value in data set [1] (1× CLR01 dose, 1 h, 22-m old WT mice) turned out to be 0.86 ± 0.30%; in data set [1] (5× CLR01 dose (59.3 μg/g), 1 h, 22-m old WT mice), 0.97 ± 0.28%. Also, the “Absolute amount of radioactivity in the brain relative to 1× dose” value in data set [1] (5× CLR01 dose, 22-m old WT mice, on average) was found to be 5 times. Moreover, the “Blood radioactivity levels, % of the injected levels” value in data set [1] (12-m old 3×Tg mice) amounted to 40 ± 6%; in data set [1] (12-m old WT mice), 39 ± 13%. Further, the “Brain radioactivity after double injection compared to one injection” value in data set [1] (1 h, 22-m old WT mice) worked out at 3.3 ×; in data set [1] (3 h, 22-m old WT mice), 1.6 ×; in data set [1] (8 h, 22-m old WT mice), 1.9 ×. In addition, the “Brain-radioactivity levels as a percentage of blood-radioactivity levels (CPM/g)/(CPM/ml)” value in data set [1] (1 h following IV injection, 2-m old 3×Tg mice) was 3.09 ± 0.55%; in data set [1] (1 h following IV injection, 2-m old WT mice), 2.68 ± 0.31%; in data set [1] (1 h following IV injection, 12-m old 3×Tg mice), 1.43 ± 0.17%; in data set [1] (1 h following IV injection, 12-m old WT mice) it was 2.11 ± 0.69%; in data set [1] (1 h following IV injection, 24-m old 3×Tg mice), 1.45 ± 0.28%; in data set [1] (1 h following IV injection, 24-m old WT mice), 0.86 ± 0.17%. For the same compound, the “Brain-radioactivity levels as a percentage of blood-radioactivity levels, over all groups” value in data set [1] (1 h following IV injection, depending on age and genotype (WT versus 3×Tg)) is 0.86–3.09% and 1 - 3% and ~ 2%. For the same compound, the “Radioactivity observed at 0.5 h remaining in the blood” value in data set [1] (after 8 h, IV) was 5 - 10%. Moreover, in data set [1] (single IV injection 11.86 μg/g), the “Brain CLR01 radioactivity levels per g of brain, most group × time combinations” value is given as 10,000 - 20,000 CPM/g. Moreover, in data set [1] (urine collected between injection and euthanasia), the “Route of excretion (urine radioactivity, qualitative)” value is on record as “excreted through the urine”. In addition, in data set [2], the “Concentration at which a mild decrease in cell viability was observed” value was 400 µM. The “Concentration up to which no toxicity was detected” value in data set [2] is listed as “up to 200 μM”.
